What was measured:
[1] = molecular target: T1, rat EP1 receptor (Rattus norvegicus, UniProt P70597); experiment: Test for confirming EP1 receptor antagonistic effect: suppression of prostaglandin E2-induced rise in intracellular calcium concentration; type: cell-based; conditions: rat EP1 receptor-expressing COS-1 cells; prostaglandin E2 10 nM; Fluo 4-AM fluorescent signal; test compound 0.1 nM to 10 μM
T1 construct: expressed in transfected cells
T1 sequence (P70597 1-405): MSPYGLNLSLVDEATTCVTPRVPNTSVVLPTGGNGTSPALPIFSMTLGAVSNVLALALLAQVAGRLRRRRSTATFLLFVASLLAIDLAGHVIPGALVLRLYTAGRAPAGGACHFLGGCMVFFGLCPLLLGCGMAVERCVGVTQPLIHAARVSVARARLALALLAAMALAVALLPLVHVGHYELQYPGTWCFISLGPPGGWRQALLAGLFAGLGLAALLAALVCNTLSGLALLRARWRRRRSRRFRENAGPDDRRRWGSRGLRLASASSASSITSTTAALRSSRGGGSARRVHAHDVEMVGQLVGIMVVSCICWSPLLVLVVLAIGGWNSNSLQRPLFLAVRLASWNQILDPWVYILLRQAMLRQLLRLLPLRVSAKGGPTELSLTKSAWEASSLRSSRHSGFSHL
Experimental: (1) Preparation of Rat EP1 Expression Vector
The first PCR was performed with Rat Kidney BD Marathon-Ready cDNA (Nippon Becton Dickinson Co., Ltd.) as a template using a forward primer represented by SEQ ID NO: 1 and a reverse primer represented by SEQ ID NO: 2 and using KOD-Plus-Ver 2.0 (Toyobo Co., Ltd.). The second PCR was further performed in a similar manner with this amplification product as a template using a forward primer represented by SEQ ID NO: 3 and a reverse primer represented by SEQ ID NO: 4. The amplification product obtained by the second PCR was incorporated into a vector (pcDNA3.1 D/V5-His-TOPO (registered trademark), Invitrogen Corporation). This vector with the incorporated amplification product was introduced to E. coli (One Shot TOP10 Competent Cell, Invitrogen Corporation) by a conventional method to perform transformation. This transformed E. coli was cultured for 1 day in an LB agar medium. After the culture, colonies were selected and cultured in an LB liquid medium containing 50 μg/mL of ampicillin. After the culture, the vector was purified using QIAprep Spin Miniprep Kit (Qiagen Corporation). The base sequence (SEQ ID NO: 5) of the inserted site in this vector was compared with the base sequence (Ptger1) of rat EP1 registered under Accession No. NM_013100 in a heretofore known database (NCBI) and consequently was completely identical except for 1 base. Moreover, an amino acid sequence translated from this base sequence was completely identical to the amino acid sequence of the rat EP1 receptor registered under Accession No. NP_037232 in NCBI. Thus, it was confirmed that the cloned gene sequence was the base sequence of the rat EP1 receptor and the obtained amino acid sequence was the rat EP1 receptor. The pcDNA3.1 D/V5-His-TOPO (registered trademark) in which the nucleic acid represented by SEQ ID NO: 5 was inserted was used as a rat EP1 expression vector.
(2) Preparation of Rat EP1 Receptor-Expressing Cell
COS-1 cells (Dainippon Sumitomo Pharma Co., Ltd.) were cultured at 37° C. in an incubator under 5% CO2 gas conditions using a D-MEM liquid medium (containing high glucose and L-glutamine, Invitrogen Corporation) supplemented with a penicillin-streptomycin solution (Invitrogen Corporation, final concentration: 100 U/mL as benzylpenicillin; 100 μg/mL as streptomycin) as antibiotics, MEM non-essential amino acids (Invitrogen Corporation, final concentration: 0.1 mM), and fetal bovine serum (Moregate Biotech, final concentration: 10%), until reaching confluence.
The cells that reached confluence were dissociated with 0.05% trypsin/0.53 mM EDTA.4Na (Invitrogen Corporation) and resuspended in the liquid medium. The resuspended cells were diluted with the liquid medium so that the spread ratio became 1:4 to 1:8, and were cultured.
The cells that reached confluence were dissociated with 0.05% trypsin/0.53 mM EDTA.4Na and resuspended in a D-MEM liquid medium (containing high glucose and L-glutamine, Invitrogen Corporation) supplemented with MEM non-essential amino acids (final concentration: 0.1 mM) and fetal bovine serum (final concentration: 10%). This resuspended cell suspension was prepared with a liquid medium so as to become the number of cells 5×10^4 cells/100 μL of the liquid medium/well in each well of a poly-D-lysine-coated 96-well microplate (BD BioCoat (registered trademark), Nippon Becton Dickinson Co., Ltd.), and this cell preparation was dispensed at 100 μL to each well and seeded. After the seeding, the cells were cultured at 37° C. in an incubator under 5% CO2 gas conditions. The introduction of the rat EP1 expression vector was performed by procedures shown below at the point in time when the cells for introduction of this rat EP1 expression vector adhered (approximately 2 hours after the seeding).
Lipofectamine 2000 (Invitrogen Corporation) was used for the introduction of the rat EP1 expression vector. […]

[2] = tested on: 17-PTP-induced bladder contraction; experiment: Suppressing effect on 17-phenyl trinor prostaglandin E2 (17-PTP)-induced bladder contraction; type: in vivo, Wistar-type male rat; conditions: urethane-anesthetized spinal cord-cut rat; test compound 1 mg/kg i.v. 5 minutes before 17-PTP i.a.; most decreased value until 95 minutes, relative to average before test compound administration
Experimental: (1) Preparation of Experimental Animal
A 10 w/v % urethane solution was subcutaneously administered (s. c.) at a dose of 1.5 g/kg to a Wistar-type male rat to thereby induce anesthesia. Approximately 40 minutes after the urethane administration, the rat was confirmed to be fully anesthetized, hair in the back, the thighs on both sides, the abdomen, and the neck was shaved, and fixation in a face-down position was performed. After midline incision of the dorsal skin, thoracodorsal muscles on both sides were incised along the spine, and the muscular layer was opened with a retractor to expose the thoracic spine. While the ninth thoracic vertebra was pulled cranially, a small hole was made with bone forceps, and from it, the spinal cord was cut using a soldering iron. At this time, in the case where bleeding was heavy, a gelatin sponge for hemostasis was put into the cut portion. The thoracodorsal incision layer was closed using a surgical adhesive, and then, the rat was fixed in a face-up position. […]
The rat was placed in a face-up position on a heating pad for small animals, and a rectal temperature probe was inserted from the anus to keep the body temperature at 37.5° C. The body temperature was confirmed to become 37.5° C., then 0.1 mL of a physiological saline solution was injected into the bladder, and intravesical pressure was measured. […]

IC50 [1]: 8 nM
SMILES: O=C(O)c1cccc(Cc2c(-c3ccccc3)nn3cc(Cl)ccc23)n1 [Example 3-3, 6-[(6-Chloro-2-phenylpyrazolo[1,5-a]pyridin-3-yl)methyl]pyridine-2-carboxylic acid]
Amount of change in intravesical pressure [2]: 53%

Source: patent US20130331378A1, “PYRAZOLOPYRIDINE DERIVATIVE OR PHARMACOLOGICALLY ACCEPTABLE SALT THEREOF” (KISSEI PHARMACEUTICAL CO., LTD., priority 2011, published 2013)
